Paper PMC7946667 (Cancer Chemotherapy and Pharmacology, 2021)
Several values for one entry are separate records, joined by “and”; a condition that tells them apart may be missing. Identical values can stand only once. Like-named read-outs stand apart in the source and are kept apart here.

Experiments:
[1] = test system: CYP3A; assay: Clinical DDI study: pharmacokinetics of midazolam (CYP3A probe substrate) and 1′-hydroxymidazolam with and without ceritinib; format: in vivo, human; conditions: for Metabolite-to-parent ratio: AUC0–144 h based, molecular weight corrected; for AUC(0-inf): read-out: AUC0-inf, adjusted geometric mean
Source text: This was a multicenter, open-label, single sequence, crossover phase I study (ClinicalTrials.gov identifier: NCT02422589) and was divided into two phases, DDI phase and post-DDI treatment phase (Fig. 1). Patients were recruited from 10 clinical centers located across 4 countries, namely Spain (n = 3), United States (n = 3), Italy (n = 3), and Denmark (n = 1).
To assess the pharmacokinetics of probe substrates, blood samples were obtained on Days 1 and 28 at pre-dose and at 0.25, 0.5, 1, 2, 3, 4, 6, 8, 10, 24, 48, 72, 96, 120, and 144 h post-dose. […] A blood sample for CYP2C9 genotyping was collected on Day 1 of the DDI phase from all participating patients. Patients were categorized as CYP2C9 poor, intermediate, or extensive metabolizers based on the genotype testing results. This assessment was of exploratory nature and was not used as inclusion/exclusion criteria in the study.
A linear mixed-effects model was fitted to the log-transformed primary PK parameters (Cmax, AUC0-144 h, and AUC0-inf) and included a fixed effect for treatment and a random effect for subject.

[2] = test system: CYP2C9; conditions: for AUC0-inf, adjusted geometric mean / Cmax, adjusted geometric mean: linear mixed effects model; for Tmax: median [min, max]; for AUC0–144 h / Cmax: patient plasma; for AUC0–144 h / Cmax / Metabolite-to-parent ratio: geometric mean (CV%); for Metabolite-to-parent ratio: AUC0–144 h based, molecular weight corrected
[3] = test system: CYP3A; conditions: PBPK, cited from earlier work
[4] = midazolam 2.5 mg single oral dose + ceritinib 750 mg QD at steady state (Day 28), patient plasma, geometric mean (CV%)
[5] = midazolam 2.5 mg single oral dose alone (Day 1), patient plasma, geometric mean (CV%)
[6] = midazolam + ceritinib vs midazolam alone
[7] = treatment warfarin + ceritinib 750 mg QD for 3 weeks
[8] = warfarin 10 mg single oral dose + ceritinib 750 mg QD at steady state (Day 28)
[9] = warfarin 10 mg single oral dose alone (Day 1)
[10] = warfarin + ceritinib / warfarin alone
[11] = midazolam 2.5 mg single oral dose + ceritinib 750 mg QD (Day 28), geometric mean (CV%)
[12] = midazolam 2.5 mg single oral dose alone (Day 1), geometric mean (CV%)

Question: For `OCc1ncc2n1-c1ccc(Cl)cc1C(c1ccccc1F)=NC2` [1′-hydroxymidazolam], which Tmax ([1]; midazolam 2.5 mg single oral dose + ceritinib 750 mg QD (Day 28), median [min, max]) is on record?
Answer: 0.583 [0.250; 2.53] h

Question: What about the “AUC0–144 h” value [1, 4] of the same molecule?
Answer: 12.1 (87.0) h*ng/mL

Question: And the Cmax [1, 4]?
Answer: 1.90 (73.8) ng/mL

Question: What about the Tmax ([1]; midazolam 2.5 mg single oral dose alone (Day 1), median [min, max]) of the same molecule?
Answer: 0.500 [0.217; 2.00] h

Question: And the “AUC0–144 h” value [1, 5]?
Answer: 14.7 (74.4) h*ng/mL

Question: What about the Cmax [1, 5] of the same molecule?
Answer: 5.41 (74.1) ng/mL

Question: And the Metabolite-to-parent ratio ([1]; midazolam + ceritinib 750 mg QD (Day 28), geometric mean (CV%))?
Answer: 2.9% and 2.89 (66.7) %

Question: And the “decrease in the metabolite-to-parent AUC ratio” value [1, 6]?
Answer: 85%

Question: What about the Metabolite-to-parent ratio ([1]; midazolam alone (Day 1), geometric mean (CV%)) of the same molecule?
Answer: 19.3% and 19.3 (66.3) %

Question: Which results are given for `CC(=O)C[C@@H](c1ccccc1)c1c(O)c2ccc(O)cc2oc1=O` [7-Hydroxy-S-warfarin, 7-hydroxy-S-warfarin]?
Answer: AUC0-inf, adjusted geometric mean [2, 7]: 3330 ng·h/mL; Cmax, adjusted geometric mean [2, 7]: 34.8 ng/mL; AUC0-inf, adjusted geometric mean ([2]; treatment warfarin alone): 3090 ng·h/mL; Cmax, adjusted geometric mean ([2]; treatment warfarin alone): 39.1 ng/mL; Tmax ([2]; warfarin 10 mg single oral dose + ceritinib 750 mg QD (Day 28)): 47.2 [8.50; 73.7] h; AUC0–144 h [2, 8]: 3320 (64.1) h*ng/mL; Cmax [2, 8]: 34.9 (61.6) ng/mL; Tmax [2, 9]: 24.2 [2.97; 49.9] h; AUC0–144 h [2, 9]: 2910 (61.8) h*ng/mL; Cmax [2, 9]: 39.7 (60.3) ng/mL; Metabolite-to-parent ratio ([2]; warfarin + ceritinib 750 mg QD (Day 28)): 11.7 (58.2) %; Metabolite-to-parent ratio ([2]; warfarin + ceritinib 750 mg QD (Day 28), listed as 7-hydroxy-S-warfarin): 11.7%; AUC0-inf geometric mean ratio (90% CI) [2, 10]: 1.08; Cmax geometric mean ratio (90% CI) [2, 10]: 0.890; decrease in the metabolite-to-parent AUC ratio ([2]; warfarin + ceritinib vs warfarin alone): 18%; Metabolite-to-parent ratio ([2]; warfarin alone (Day 1)): 14.3 (66.6) %; Metabolite-to-parent ratio ([2]; warfarin alone (Day 1), listed as 7-hydroxy-S-warfarin): 14.3%

Question: Which “predicted increase of midazolam AUC” value ([3]; ceritinib dosed to steady-state + single oral dose midazolam 5 mg) does the source give for `Cc1ncc2n1-c1ccc(Cl)cc1C(c1ccccc1F)=NC2` [Midazolam, midazolam] here?
Answer: 6 fold

Question: And the “predicted increase of midazolam AUC” value ([3]; single dose ceritinib 750 mg + single oral dose midazolam 5 mg)?
Answer: 30%

Question: What about the Tmax ([1]; human, plasma, oral) of the same molecule?
Answer: ~1 h

Question: What about the AUC(0-inf) ([1]; human, plasma, oral, treatment midazolam + ceritinib 750 mg QD for 3 weeks, linear mixed effects model) of the same molecule?
Answer: 393 ng·h/mL

Question: What about the Cmax ([1]; human, plasma, oral, treatment midazolam + ceritinib 750 mg QD for 3 weeks, linear mixed effects model, read-out: Cmax, adjusted geometric mean) of the same molecule?
Answer: 42 ng/mL

Question: And the AUC(0-inf) ([1]; human, plasma, oral, treatment midazolam alone, linear mixed effects model)?
Answer: 72.5 ng·h/mL

Question: And the Cmax ([1]; human, plasma, oral, treatment midazolam alone, linear mixed effects model, read-out: Cmax, adjusted geometric mean)?
Answer: 23 ng/mL

Question: And the half-life ([1]; human, plasma, po, 2.5 mg, midazolam 2.5 mg single oral dose alone (Day 1), geometric mean (CV%))?
Answer: 6 h

Question: What about the Cmax ([1]; human, plasma, po, 2.5 mg, midazolam 2.5 mg single oral dose alone (Day 1), patient plasma, geometric mean (CV%), read-out: Cmax) of the same molecule?
Answer: 23 ng/mL

Question: What about the AUC(0-t) ([1]; human, plasma, po, 2.5 mg, read-out: AUC0–144 h) of the same molecule?
Answer: 70.2 ng·h/mL

Question: And the Tmax ([1]; human, plasma, po, 2.5 mg, read-out: Tmax)?
Answer: 0.5 h

Question: And the half-life ([1]; human, plasma, po, midazolam 2.5 mg single oral dose + ceritinib 750 mg QD (Day 28), geometric mean (CV%))?
Answer: 15 h

Question: What about the Cmax ([1]; human, plasma, po, midazolam 2.5 mg single oral dose + ceritinib 750 mg QD at steady state (Day 28), patient plasma, geometric mean (CV%), read-out: Cmax) of the same molecule?
Answer: 42 ng/mL

Question: What about the CL/F [1, 11] of the same molecule?
Answer: 6.36 L/h

Question: What about the T1/2 [1, 11] of the same molecule?
Answer: 15.4 (37.4) h

Question: And the CL/F [1, 12]?
Answer: 34.5 L/h

Question: And the T1/2 [1, 12]?
Answer: 6.05 (47.8) h

Question: What about the “decrease in apparent clearance (CL/F) of midazolam” value [1, 6] of the same molecule?
Answer: approximately 80%
